Measurements taken from publication PMC8980233, “Differentiating the Neuropharmacological Properties of Nicotinic Acetylcholine Receptor-Activating Alkaloids” (Frontiers in Pharmacology, 2022).

Tests used:
[1] = tested on: zebrafish (Danio rerio; strain AB); assay: Zebrafish novel tank test (NTT)
Method: Adult male and female wild-type zebrafish were treated with the compounds for 20 min in a final volume of 50 ml in a 250-ml treatment beaker one fish at a time. The fish were briefly rinsed in fresh system water, and then immediately transferred to a trapezoidal tank (14.6 cm height x 5.5 cm width x 27.9 cm top length and x 23.6 cm bottom length) filled with 1.5 L system water. The behavior of the fish was monitored for the next 5 min by using the Noldus EthoVision XT system (Wageningen, Netherlands), with the camera placed approximately 1 m from the test tank. The part of the tank filled with water (11.5 cm height) was virtually divided into top, center, and bottom of equal heights (approximately 3.8 cm per segment) for the analysis. The average time spent at the top and bottom portions of the tank was analyzed to determine the anxiety-like behavior of fish. The average total distance travelled and freezing time were calculated to determine the effects of the compounds on the general behavior of fish. Freezing was defined by a complete cessation of movement except for gills and eyes ([Kalueff et al., 2013]). A minimum of 12 fish (6 females and 6 males) per condition were used for the study. The experimenter was blind to the test conditions.
If not, the dose was reduced until no obvious signs of tolerability problems were observed. […] The concentrations were calculated based on the free base molecular weight. Buspirone—a clinical anxiolytic drug used acutely and chronically to investigate the change in the anxiety-like behavior ([Maximino, et al., 2011]; [Maximino, et al., 2013])—was included as a positive control.

C57Bl/6 mice [2] = assay: Tolerability test (body weight, body temperature, passive signs, manipulation responses); conditions: for BT (°C) naïve / Manipulations naïve / Passive naïve: baseline; for BW Day 1 / BW Day 2: mean ± SD
Method: In brief, mice were single-housed prior to the test and evaluated for baseline body weight, body temperature, and other parameters. […] On day 1, the mice were i. p. injected with saline (vehicle) or a test compound at 10 ml/kg body weight. Then, body temperature was measured at 15 min, 4 h, and 24 h and body weight on days 1 and 2. Neurological and motor parameters were evaluated at 15 min, 2 h, and 4 h after administration. The list of parameters is provided in Supplementary Figure S1 in Supplementary Material S1.
In addition, within 5 min after the 15-min observation period, mice were placed in open-field chambers for 30 min to determine their general motor activity (distance traveled), ambulatory time, and number of rears. The open-field chambers were made of Plexiglas (27.3 × 27.3 × 20.3 cm; Med Associates Inc, St Albans, VT, United States) surrounded by infrared photobeam sources (16 × 16 × 16 beams). Horizontal activity (distance and time traveled) and vertical activity (number and frequency of rears) were measured by consecutive beam breaks. At the end of each open-field test session, the chambers were thoroughly cleaned with NOLVASAN® solution (Zoetis Services LLC, Parsippany, NJ, United States). Four mice were used per treatment condition. Mice were terminated after completion of the last tolerability observation.
All compounds were diluted in saline, and the pH was adjusted to approximately 7.0 with HCl or NaOH on the day of the experiment. […] The doses were calculated based on the free base molecular weight of the compounds.
For the tolerability tests, passive signs and manipulation responses were analyzed for effects of the treatment by the Kruskal–Wallis test. Body temperature and body weight data were analyzed by two-way repeated measures analysis of variance (ANOVA). The total distance and time traveled and number and frequency of rears in the open-field activity test were analyzed by one-way ANOVA, followed by the Tukey post-hoc test. For the analyses of the zebrafish NTT data, one-way ANOVA was used, followed by Dunnett’s multiple comparison test, if it passed the Shapiro-Wilk normality test. […] An effect was considered significant if p < 0.05. The half maximal effective concentration (EC50) and half-maximal inhibitory concentration (IC50) for the receptor pharmacology and neurotransmitter release assay were determined by using nonlinear regression analysis. Statistical analyses were conducted using GraphPad Prism.

C57Bl/6 mice [3] = assay: SmartCube behavioral profiling; type: in vivo; conditions: single i.p. injection, highest dose 0.5 mg/kg body weight
Excerpt: The SmartCube^ ® system is a unique mouse behavior profiling system developed by PsychoGenics Inc. It extracts over 2000 spontaneous and challenge-induced behavioral features during a session ([Alexandrov et al., 2015]; [Alexandrov et al., 2016]). The recorded behavioral parameters are then compared against the behavioral profiles of marketed reference compounds in the database, and the test compounds are classified into known drug classes using PsychoGenics’ proprietary bioinformatics algorithms. In brief, mice were i. p. injected with vehicle or test compound at 10 ml/kg body weight and placed in the SmartCube^ ® arena (24 cm × 25 cm) 15 min later. Spontaneous and stimulus-induced behaviors of mice were recorded using force sensors distributed throughout the arena during a 45-min test session. In addition, three high-resolution video cameras provided a constant 3-dimensional (3D) view of the mouse behavior in the SmartCube^ ® arena throughout the testing period. The bedding was vacuumed, and the arena was cleaned with NOLVASAN^ ® solution between each run. Data from the SmartCube^ ® test were processed using PsychoGenics’ proprietary Computer Vision feature extraction, Bayesian probabilistic density models, and data mining algorithms, trained on a large library of reference compounds with known therapeutic indications to predict the underlying class of each test compound ([Alexandrov et al., 2015]; [Alexandrov et al., 2016]). Twelve mice were tested per condition. Mice were terminated after the completion of the SmartCube^ ® test.
The doses were calculated based on the free base molecular weight. The doses were selected based on the tolerability test results.

[4] = 1, 3, and 10 mg/L, 20 min treatment

CN1CCC[C@H]1c1cccnc1 [Nicotine, (-)-Nicotine]
time spent at the bottom [1, 4]: reduced the time spent at the bottom | time spent at the top [1, 4]: increased the time spent at the top | freezing response ([1]; 1 and 10 mg/L): no freezing response | total distance traveled ([1]; 1 and 10 mg/L): decreased total distance traveled | BT (°C) naïve (C57Bl/6 mice [2]; 0.25 mg/kg group): 37.83 ± 0.15 °C | Manipulations naïve (C57Bl/6 mice [2]; 0.25 mg/kg group): 0.00 ± 0.00 | Passive naïve (C57Bl/6 mice [2]; 0.25 mg/kg group): 0.00 ± 0.00 | BT (°C) 15min (C57Bl/6 mice [2]; 0.25 mg/kg i.p.): 37.48 ± 0.98 °C | BT (°C) 4hr (C57Bl/6 mice [2]; 0.25 mg/kg i.p.): 36.88 ± 0.97 °C | BT (°C) 24hr (C57Bl/6 mice [2]; 0.25 mg/kg i.p.): 36.43 ± 0.87 °C | Manipulations 15min (C57Bl/6 mice [2]; 0.25 mg/kg i.p.): 0.00 ± 0.00 | Manipulations 2hr (C57Bl/6 mice [2]; 0.25 mg/kg i.p.): 0.00 ± 0.00 | Manipulations 4hr (C57Bl/6 mice [2]; 0.25 mg/kg i.p.): 0.00 ± 0.00 | Passive 15min (C57Bl/6 mice [2]; 0.25 mg/kg i.p.): 0.00 ± 0.00 | Passive 2hr (C57Bl/6 mice [2]; 0.25 mg/kg i.p.): 0.00 ± 0.00 | Passive 4hr (C57Bl/6 mice [2]; 0.25 mg/kg i.p.): 0.00 ± 0.00 | BW Day 1 (C57Bl/6 mice [2]; 0.25 mg/kg i.p.): 24.54 ± 0.97 | BW Day 2 (C57Bl/6 mice [2]; 0.25 mg/kg i.p.): 24.33 ± 0.99 | BT (°C) naïve (C57Bl/6 mice [2]; 0.5 mg/kg group): 37.93 ± 0.17 °C | Manipulations naïve (C57Bl/6 mice [2]; 0.5 mg/kg group): 0.00 ± 0.00 | Passive naïve (C57Bl/6 mice [2]; 0.5 mg/kg group): 0.00 ± 0.00 | BT (°C) 15min (C57Bl/6 mice [2]; 0.5 mg/kg i.p.): 36.48 ± 0.90 °C | BT (°C) 4hr (C57Bl/6 mice [2]; 0.5 mg/kg i.p.): 36.50 ± 0.44 °C | BT (°C) 24hr (C57Bl/6 mice [2]; 0.5 mg/kg i.p.): 36.65 ± 0.41 °C | Manipulations 15min (C57Bl/6 mice [2]; 0.5 mg/kg i.p.): 0.00 ± 0.00 | Manipulations 2hr (C57Bl/6 mice [2]; 0.5 mg/kg i.p.): 0.00 ± 0.00 | Manipulations 4hr (C57Bl/6 mice [2]; 0.5 mg/kg i.p.): 0.00 ± 0.00 | Passive 15min (C57Bl/6 mice [2]; 0.5 mg/kg i.p.): 0.00 ± 0.00 | Passive 2hr (C57Bl/6 mice [2]; 0.5 mg/kg i.p.): 0.00 ± 0.00 | Passive 4hr (C57Bl/6 mice [2]; 0.5 mg/kg i.p.): 0.00 ± 0.00 | BW Day 1 (C57Bl/6 mice [2]; 0.5 mg/kg i.p.): 24.58 ± 0.93 | BW Day 2 (C57Bl/6 mice [2]; 0.5 mg/kg i.p.): 24.76 ± 1.20 | BT (°C) naïve (C57Bl/6 mice [2]; 1 mg/kg group): 37.90 ± 0.16 °C | Manipulations naïve (C57Bl/6 mice [2]; 1 mg/kg group): 0.00 ± 0.00 | Passive naïve (C57Bl/6 mice [2]; 1 mg/kg group): 0.00 ± 0.00 | BT (°C) 15min (C57Bl/6 mice [2]; 1 mg/kg i.p.): 33.53 ± 0.85 °C | BT (°C) 4hr (C57Bl/6 mice [2]; 1 mg/kg i.p.): 36.55 ± 0.48 °C | BT (°C) 24hr (C57Bl/6 mice [2]; 1 mg/kg i.p.): 36.53 ± 0.31 °C | Manipulations 15min (C57Bl/6 mice [2]; 1 mg/kg i.p.): 0.00 ± 0.00 | Manipulations 2hr (C57Bl/6 mice [2]; 1 mg/kg i.p.): 0.00 ± 0.00 | Manipulations 4hr (C57Bl/6 mice [2]; 1 mg/kg i.p.): 0.00 ± 0.00 | Passive 15min (C57Bl/6 mice [2]; 1 mg/kg i.p.): 0.00 ± 0.00 | Passive 2hr (C57Bl/6 mice [2]; 1 mg/kg i.p.): 0.00 ± 0.00 | Passive 4hr (C57Bl/6 mice [2]; 1 mg/kg i.p.): 0.00 ± 0.00 | body temperature 15 min after the injection (C57Bl/6 mice [2]; 1 mg/kg i.p.): decreased the body temperature | BW Day 1 (C57Bl/6 mice [2]; 1 mg/kg i.p.): 24.55 ± 0.94 | BW Day 2 (C57Bl/6 mice [2]; 1 mg/kg i.p.): 24.10 ± 0.61 | SmartCube drug classification / behavioral features (C57Bl/6 mice [3]): anxiolytic-like behavior features
